Reference: patent publication US20080070954A1, “Acylurea Connected And Sulfonylurea Connected Hydroxamates” (S*BIO PTE LTD., priority 2003, published 2008)

Tests used:
[1] = tested on: Ramos Burkitt-lymphoma cells; test: Apoptosis assay (Annexin V / PI staining, FACS); assay type: cell-based; settings: 48 hr after treatment with 10 μM
Description: In various therapies such as for proliferative disorders like cancer, the selective induction of apoptosis in proliferating cells such as tumor cells is one of the desirable approaches, and can be mediated by treatment with various anti-proliferative compounds [Blagosklonny M V, Oncogene, 23(16): 2967 (2004); Kaufmann and Earnshaw, Exp Cell Res. 256(1): 42-9 (2000)]. Programmed cell death or apoptosis is the cellular response to stress factors such as DNA damage introduced during conventional anti-cancer treatment. The concerted sequence of events during apoptosis, clearly differentiate this pathway from a non-coordinated form of cell death called necrosis. During the course of apoptosis, characteristic phenotypical cellular changes occur, which include the condensation of chromatin, the shrinkage of cells and finally the fragmentation of chromosomal DNA. One of the very early changes caused by apoptotic events occurs in the phospholipids bilayer of the plasma membrane. The phospholipid phosphatidylserine is translocated from the inner to the outer side of the plasma-membrane and, as a result, is exposed to the extracellular space. One way of detecting early apoptotic cells is to determine the amount of phosphatidyl-serine at the extracellular side of the plasma-membrane which is accomplished by the standard flow cytometric method of Annexin V staining. […]

[2] = molecular target: T1, HDAC8 enzyme (recombinant GST-HDAC8) (Homo sapiens, UniProt Q9BY41); test: In vitro HDAC assay for determination of IC50 values (BIOMOL fluorescent-based), HDAC8; assay type: biochemical; settings: 500 nM HDAC8 enzyme, 200 μM Flur de lys p53 peptide substrate, 2 h room temperature
T1 construct: Amplification of human HDAC1 and HDAC8 coding region from this cDNA library; made in house; host or cells: SF9 insect cells (baculovirus, pFASTBAC vector)
T1 sequence (Q9BY41 1-377): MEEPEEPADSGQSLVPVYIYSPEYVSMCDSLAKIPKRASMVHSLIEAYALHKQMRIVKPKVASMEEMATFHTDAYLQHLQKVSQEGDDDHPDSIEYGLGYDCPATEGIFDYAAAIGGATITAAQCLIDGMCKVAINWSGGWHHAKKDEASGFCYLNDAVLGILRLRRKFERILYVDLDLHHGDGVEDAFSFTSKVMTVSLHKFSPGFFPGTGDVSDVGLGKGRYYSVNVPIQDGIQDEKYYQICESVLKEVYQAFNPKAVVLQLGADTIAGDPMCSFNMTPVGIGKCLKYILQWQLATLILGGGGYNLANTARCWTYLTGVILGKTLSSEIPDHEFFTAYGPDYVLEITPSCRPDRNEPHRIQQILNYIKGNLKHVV
Experimental: Human cDNA library was prepared using cultured SW620 cells. Amplification of human HDAC1 and HDAC8 coding region from this cDNA library was cloned separately into the baculovirus expression pDEST20 vector and pFASTBAC vector respectively (GATEWAY Cloning Technology, Invitrogen Pte Ltd). […] Recombinant baculovirus was prepared using the Bac-To-Bac method following the manufacturer's instruction (Invitrogen Pte Ltd).
(§1) Expression of GST-HDAC1 or HTGST-HDAC8 was done by infecting SF9 cells (Invitrogen Pte Ltd) with pDEST20-HDAC1 or pFASTBAC-GST-HDAC8 baculovirus at MOI=1 for 48 h. Soluble cell lysate was incubated with pre-equilibrated Glutathione Sepharose 4B beads (Amersham) at 4° C. for 2 h. The beads were washed with PBS buffer for 3 times. The GST-HDAC1 protein or GST-HDAC8 protein was eluted by elution buffer containing 50 mM Tris, pH8.0, 150 mM NaCl, 1% Triton X-100 and 10 mM or 20 mM reduced Glutathione. The purified GST-HDAC1 protein or purified GST-HDAC8 protein was dialyzed with HDAC storage buffer containing 10 mM Tris, pH7.5, 100 mM NaCl and 3 mM MgCl2. 20% Glycerol was added to purified GST-HDAC1 protein or purified GST-HDAC8 before storage at −80° C.
The assay has been carried out in 96 well format and the BIOMOL fluorescent-based HDAC activity assay has been applied. […] Flur de lys Developer was added and the reaction was incubated for 10 min. Briefly, deacetylation of the substrate sensitizes it to the developer, which then generates a fluorophore. The fluorophore is excited with 360 nm light and the emitted light (460 nm) is detected on a fluorometric plate reader (Tecan Ultra Microplate detection system, Tecan Group Ltd.).
(§2) The analytical software, Prism 3.0® (GraphPad Software Inc) has been used to generate IC50 from a series of data.

[3] = molecular target: T2, HDAC1 enzyme (recombinant GST-HDAC1) (Homo sapiens, UniProt Q13547); test: In vitro HDAC assay for determination of IC50 values (BIOMOL fluorescent-based), HDAC1; assay type: biochemical; settings: 600 nM HDAC1 enzyme, 500 μM Flur de lys generic substrate, 2 h room temperature
T2 construct: Amplification of human HDAC1 and HDAC8 coding region from this cDNA library; made in house; host or cells: SF9 insect cells (baculovirus, pDEST20 vector)
T2 sequence (Q13547 whole entry): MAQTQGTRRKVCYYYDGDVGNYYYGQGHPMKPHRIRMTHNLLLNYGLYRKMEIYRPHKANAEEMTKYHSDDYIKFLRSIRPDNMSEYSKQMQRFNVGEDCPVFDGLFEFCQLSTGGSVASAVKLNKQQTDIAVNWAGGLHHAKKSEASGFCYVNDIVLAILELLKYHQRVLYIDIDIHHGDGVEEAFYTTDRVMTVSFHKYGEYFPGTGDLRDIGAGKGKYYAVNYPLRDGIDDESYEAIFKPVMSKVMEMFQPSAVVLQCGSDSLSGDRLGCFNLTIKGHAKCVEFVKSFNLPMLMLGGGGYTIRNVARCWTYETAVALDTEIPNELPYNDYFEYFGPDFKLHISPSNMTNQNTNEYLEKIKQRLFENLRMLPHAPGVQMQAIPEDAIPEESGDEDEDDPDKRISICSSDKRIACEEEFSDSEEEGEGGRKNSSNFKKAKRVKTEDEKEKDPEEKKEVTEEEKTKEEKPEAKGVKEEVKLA
Experimental: Human cDNA library was prepared using cultured SW620 cells. Amplification of human HDAC1 and HDAC8 coding region from this cDNA library was cloned separately into the baculovirus expression pDEST20 vector and pFASTBAC vector respectively (GATEWAY Cloning Technology, Invitrogen Pte Ltd). The pDEST20-HDAC1 and pFASTBAC-HTGST-HDAC8 constructs were confirmed by DNA sequencing. Recombinant baculovirus was prepared using the Bac-To-Bac method following the manufacturer's instruction (Invitrogen Pte Ltd). Baculovirus titer was determined by plaque assay to be about 10^8 PFU/ml.
as §1
The assay has been carried out in 96 well format and the BIOMOL fluorescent-based HDAC activity assay has been applied. The reaction composed of assay buffer, containing 25 mM Tris pH 7.5, 137 mM NaCl, 2.7 mM KCl, 1 mM MgCl2, 1 mg/ml BSA, tested compounds, 500 nM HDAC8 enzyme or 600 nM HDAC1 enzyme, 200 μM Flur de lys p53 peptide substrate for HDAC8 enzyme or 500 μM Flur de lys generic substrate for HDAC1 enzyme and subsequently was incubated at room temperature for 2 h. Flur de lys Developer was added and the reaction was incubated for 10 min. Briefly, deacetylation of the substrate sensitizes it to the developer, which then generates a fluorophore. The fluorophore is excited with 360 nm light and the emitted light (460 nm) is detected on a fluorometric plate reader (Tecan Ultra Microplate detection system, Tecan Group Ltd.).
as §2

[4] = tested on: acetylated histone H3 in Colo205 cells; test: Histone acetylation assay (western blot), histone H3; assay type: cell-based, human; parameters: key: “Active” means accumulation of acetylated histone was observed when compared with control (without compound); settings: Colo205 cells, 0.1, 1, 5 and 10 μM, 24 h
Experimental: (§3) A hallmark of histone deacetylase (HDAC) inhibition is the increase in the acetylation level of histones. Histone acetylation, including H3, H4, H2A and H2B can be detected by immuno-blotting (western-blot). Colo205 cells, approximately 1.5×10^6 cells/10 cm dish, were seeded in the previously described medium, cultivated for 24 h and subsequently treated with HDAC inhibitory agents at 0.1, 1, 5 and 10 μM final concentration. After 24 h, cells were harvested and lysed according to the instruction from Sigma Mammalian Cell Lysis Kit. The protein concentration was quantified using BCA method (Sigma Pte Ltd). The protein lysate was separated using 4-12% bis-tris SDS-PAGE gel (Invitrogen Pte Ltd) and was transferred onto PVDF membrane (BioRad Pte Ltd). The membrane was probed separately using primary antibody specific for acetylated H3, acetylated H4 or acetylated H2A (Upstate Pte Ltd). The detection antibody, goat anti rabbit antibody conjugated with Horse radish peroxidase (HRP) was used according to the manufacturer instruction (Pierce Pte Ltd). After removing the detection antibody from the membrane, an enhanced chemiluminescent substrate for detection of HRP (Pierce Pte Ltd) was added onto the membrane. After removing the substrate, the membrane was exposed to an X-ray film (Kodak) for 1 sec-20 mins. The X-ray film was developed using the X-ray film processor. The density of each band observed on the developed film could be analysed using UVP Bioimaging software (UVP, Inc, Upland, Calif.). The values were then normalized against the density of actin in the corresponding samples to obtain the expression of the protein.

[5] = tested on: MDA-MB435 human breast cancer cell line; test: Cell-based proliferation assay for determination of GI50 values, MDA-MB435; settings: MDA-MB435 cells, 96 h treatment, cyquant assay
Experimental: (§4) Human colon cancer cell lines (Colo205) and human breast cancer cell lines (MDA-MB435 and MDA-MB231) were obtained from ATCC. Colo205 cells were cultivated in RPMI 1640 containing 2 mM L-Glutamine, 5% FBS, 1.0 mM Na Pyruvate. MDA-MB231 cells were cultivated in RPMI 1640 containing 2 mM L-glutamine, 5% FBS. MDA-MB435 cells were cultivated in DMEM containing 2 mM L-Glutamine, 5% FBS. Colo205 cells were seeded in 96-wells plate at 5000 cells per well respectively. MDA-MB435 and MDA-MB231 cells were seeded in 96-wells plate at 6000 cells per well. The plates were incubated at 37° C., 5% CO2, for 24 h. Cells were treated with compounds at various concentrations for 96 h. Cell growth was then monitored using cyquant cell proliferation assay (Invitrogen Pte Ltd). Dose response curves were plotted to determine GI50 values for the compounds using XL-fit (ID Business Solution, Emeryville, Calif.).

[6] = tested on: Colo205 human colon cancer cell line; test: Cell-based proliferation assay for determination of GI50 values, Colo205; settings: COLO 205, Colo205 cells, 96 h treatment, cyquant assay, read-out: Colo 205 Gl50
Experimental: as §4

[7] = tested on: acetylated histone H2B in Colo205 cells; test: Histone acetylation assay (western blot), histone H2B; assay type: cell-based, human; parameters: key: “Active” means accumulation of acetylated histone was observed when compared with control (without compound); settings: Colo205 cells, 0.1, 1, 5 and 10 μM, 24 h
Experimental: as §3, with “After removing the substrate, the membrane was exposed to an X-ray film (Kodak) for 1 sec-20 mins. The X-ray film was developed using the X-ray film processor.” left out, “The values were then normalized against the density of actin in the corresponding samples to obtain the expression of the protein.” left out

[8] = tested on: acetylated histone H2A in Colo205 cells; test: Histone acetylation assay (western blot), histone H2A; assay type: cell-based, human; parameters: key: “Active” means accumulation of acetylated histone was observed when compared with control (without compound); settings: Colo205 cells, 0.1, 1, 5 and 10 μM, 24 h
Experimental: as §3, with “After removing the substrate, the membrane was exposed to an X-ray film (Kodak) for 1 sec-20 mins. The X-ray film was developed using the X-ray film processor.” left out, “The values were then normalized against the density of actin in the corresponding samples to obtain the expression of the protein.” left out

[9] = tested on: MDA-MB231 human breast cancer cell line; test: Cell-based proliferation assay for determination of GI50 values, MDA-MB231; settings: MDA-MB231 cells, 96 h treatment, cyquant assay
Experimental: as §4

[10] = tested on: acetylated histone H4 in Colo205 cells; test: Histone acetylation assay (western blot), histone H4; assay type: cell-based, human; parameters: key: “Active” means accumulation of acetylated histone was observed when compared with control (without compound); settings: Colo205 cells, 0.1, 1, 5 and 10 μM, 24 h
Experimental: as §3

| IC50 [2] [nM] | IC50 [3] [nM] | GI50 [6] [nM] | SMILES | percentage of late apoptotic cells [1] [%] | Histone 3 acetylation [4] | MDA-MB435 Gl50 [5] [µM] | Histone 2B acetylation [7] | Hisotne 2A acetylation [8] | MDA-MB231 Gl50 [9] [µM] | Histone 4 acetylation [10] |
| --- | --- | --- | --- | --- | --- | --- | --- | --- | --- | --- |
| 22 | 1540 | – | Cc1ccc(S(=O)(=O)NC(=O)Nc2cccc(/C=C/C(=O)NO)c2)cc1 [Example 3, N-Hydroxy-3-{3-[3-(4-methylbenzenesulfonyl)ureido]-phenyl}-acrylamide] | 84 | – | – | – | – | – | – |
| 210 | 4 | 260 | O=C(/C=C/c1ccc(CN(CCc2c[nH]c3ccccc23)C(=O)NC(=O)c2ccccc2)cc1)NO [Example 11, 3-(4-{3-Benzoyl-1-[2-(1H-indol-3-yl)-ethyl]-ureidomethyl}phenyl)-N-hydroxy-acrylamide] | – | Active | 0.62 | Active | Active | 0.26 | Active |
